Experimental data published in patent US7632845B2, “Phenyl quinolines and their use as estrogenic agents” (Wyeth, priority 2003, dated 2009).

Key:
ERβ = target: T1, ERβ (Homo sapiens, UniProt Q92731); test: Competition with [3H]-17β-estradiol for ERβ ligand binding domain; conditions: for IC50: crude E. coli lysate expressing human ERβ LBD (D, E, & F), 2 nM [3H]-17β-estradiol, 5-15 hours at room temperature; for α/β: receptor selectivity, ratio ERα IC50 / ERβ IC50
T1 construct: made in house; host or cells: E. coli
T1 sequence (Q92731 264-498 limits assumed): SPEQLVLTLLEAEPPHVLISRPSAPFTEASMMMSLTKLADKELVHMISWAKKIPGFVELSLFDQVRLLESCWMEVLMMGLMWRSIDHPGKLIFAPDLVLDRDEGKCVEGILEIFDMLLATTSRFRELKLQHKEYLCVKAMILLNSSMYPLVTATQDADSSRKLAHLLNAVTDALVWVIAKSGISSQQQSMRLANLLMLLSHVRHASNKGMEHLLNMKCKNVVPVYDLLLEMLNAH
Description: (§1) Representative examples of the invention were evaluated for their ability to compete with 17β-estradiol for both ERα and ERβ. This test procedure provides the methodology for one to determine whether a particular compound binds to the estrogen receptor (and is therefore “estrogenic”) and whether there is selectivity for ERα or ERβ. […] 17β-estradiol is included as a standard reference for compalison. The procedure used is briefly described below. A crude lysate of E. coli expressing the estrogen receptor ligand binding domains (D, E, & F) of human ERα or ERβ was prepared. Both receptors and compounds were diluted in 1× Dulbecco's PBS (DPBS) supplemented with 1 mM EDTA. Using a high binding masked microtiter plate, 100 uL of receptor (1 uG/well) was combined with 2 nM [^3H]-17β-estradiol and various concentrations of compound. After between 5 and 15 hours at room temperature, the plates were washed with DPBS/1 mM EDTA and bound radioactivity determined by liquid scintillation counting.

ERα = target: T2, ERα (Homo sapiens, UniProt P03372); test: Competition with [3H]-17β-estradiol for ERα ligand binding domain; conditions: crude E. coli lysate expressing human ERα LBD (D, E, & F); 2 nM [3H]-17β-estradiol; 5-15 hours at room temperature
T2 construct: made in house; host or cells: E. coli
T2 sequence (P03372 311-547 limits assumed): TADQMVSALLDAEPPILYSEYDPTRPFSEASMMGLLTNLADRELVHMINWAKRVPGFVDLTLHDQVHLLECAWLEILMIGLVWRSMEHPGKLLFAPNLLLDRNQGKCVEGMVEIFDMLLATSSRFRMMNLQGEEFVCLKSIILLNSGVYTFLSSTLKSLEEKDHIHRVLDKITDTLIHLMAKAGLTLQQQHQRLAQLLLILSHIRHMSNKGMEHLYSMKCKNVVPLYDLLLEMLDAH
Description: as §1

| Compound | IC50 (ERβ) | α/β (ERβ) | IC50 (ERα) |
| --- | --- | --- | --- |
| N#Cc1ccc(-c2cc(-c3ccc(O)c(F)c3)nc3c(Cl)cc(O)cc23)cc1 [Cpd 51, 8-Chloro-4-(4-cyanophenyl)-2-(3-fluoro-4-hydroxyphenyl)quinolin-6-ol] | 0.037 µM | 56 | 2.07 µM |
| COc1ccc(-c2cc(-c3ccc(O)c(F)c3)nc3c(Cl)cc(O)cc23)cc1 [Cpd 52, 8-Chloro-2-(3-fluoro-4-hydroxyphenyl)-4-(4-methoxyphenyl)quinolin-6-ol] | 0.013 µM | 15 | 0.195 µM |
| N#Cc1cc(O)cc2c(Br)cc(-c3ccc(O)c(F)c3)nc12 [Cpd 57, 4-Bromo-8-cyano-2-(3-fluoro-4-hydroxyphenyl)quinolin-6-ol] | 0.0014 µM | 61 | 0.086 µM |
| C#Cc1cc(-c2ccc(O)c(F)c2)nc2c(C#N)cc(O)cc12 [Cpd 58, 8-Cyano-4-ethynyl-2-(3-fluoro-4-hydroxyphenyl)quinolin-6-ol] | 0.0013 µM | 67 | 0.087 µM |
| N#Cc1ccc(-c2cc(O)cc3c(Cl)cc(-c4ccc(O)c(F)c4)nc23)cc1 [Cpd 61, 4-Chloro-8-(4-cyanophenyl)-2-(3-fluoro-4-hydroxyphenyl)quinolin-6-ol] | 0.013 µM | 40 | 0.522 µM |

Second part, the molecule after the results:

| IC50 (ERβ) | α/β (ERβ) | IC50 (ERα) | Compound |
| --- | --- | --- | --- |
| 0.021 µM | 14 | 0.304 µM | CCCCC#Cc1cc(-c2ccc(O)c(F)c2)nc2c(Cl)cc(O)cc12 [Cpd 49, 8-Chloro-2-(3-fluoro-4-hydroxyphenyl)-4-hex-1-ynylquinolin-6-ol] |
| 0.00095 µM | 79 | 0.075 µM | C=Cc1cc(-c2ccc(O)c(F)c2)nc2c(Cl)cc(O)cc12 [Cpd 50, 8-Chloro-2-(3-fluoro-4-hydroxyphenyl)-4-vinylquinolin-6-ol] |
| 0.0011 µM | 105 | 0.116 µM | N#Cc1cc(O)cc2c(Cl)cc(-c3ccc(O)c(F)c3)nc12 [Cpd 56, 4-Chloro-8-cyano-2-(3-fluoro-4-hydroxyphenyl)quinolin-6-ol] |
